In brackets after ≈: the same amount, converted by molar mass. Several values for one entry are separate records, joined by “and”; a condition that tells them apart may be missing. Equal entries are not always repeated. Residues, ends and D or L forms follow the SMILES beside them.
Columns and labels:
[1] = test system: P. aeruginosa FADDI-PA038; assay type: cell-based, Pseudomonas aeruginosa; details: FADDI-PA038
Description: (§1) MICs were determined in cation-adjusted Mueller–Hinton broth (CaMHB) by the broth micro-dilution method against ATCC strains and clinical isolates. MICs in the presence of Survanta® were determined as described above against P. aeruginosa ATCC 27853. In the 100 μL of fresh CaMHB containing polymyxins, 10% Survanta® (v/v, 2.5 mg/mL phospholipids) was added. MICs in the presence and absence of Survanta® were compared to determine the effect of binding to lung surfactant on the antibacterial activity of polymyxins.

P. aeruginosa ATCC 27853 [2] = assay type: cell-based, Pseudomonas aeruginosa; details: ATCC 27853
Description: as §1

[3] = test system: P. aeruginosa FADDI-PA025; assay type: cell-based, Pseudomonas aeruginosa; details: FADDI-PA025
Description: as §1

Swiss mice, kidney = assay: Nephrotoxicity in mice (kidney histopathology); assay type: in vivo, mouse; details: for Kidney histopathology (SQS Score): 72 mg/kg/d subcutaneously in six divided doses every 2 h, n = 3; for Kidney histopathology, mice with the SQS score: mouse, in vivo
Description: The experimental methodology has been previously reported by our group. Briefly, individual lipopeptide solutions were prepared in sterile saline (6 mg/mL). Swiss mice (female, 7-week-old, 22–28 g) were subcutaneously administered at 12 mg/kg in, 6 doses every 2 h to reach a total dose of 72 mg/kg (n = 3). For high-dose nephrotoxicity experiments, mice were intraperitoneally administered at 20 or 25 mg/kg, in 6 doses every 2 h to reach a total dose of 120 mg/kg (n = 6) or 150 mg/kg (n = 3). At 20 h after the last dose, the right kidney from each mouse was collected and placed in 10% buffered (pH 7.4) formalin (Sigma-Aldrich, Castle Hill, NSW, Australia). The kidneys were subjected to histological examination at the Australian Phenomics Network-Histopathology and Organ Pathology (University of Melbourne, Parkville, VIC, Australia), who was blind to the treatment groups.

P. aeruginosa ATCC 27853 [4] = assay: Neutropenic mouse bloodstream infection model; assay type: in vivo; details: single IV dose 4 mg/kg; for Log10 CFU/mL blood at 4 h, Mean / Δlog10 CFU/mL blood (mean) / Log10 CFU/mL blood at 4 h, single mouse: 4 h; for Δlog10 CFU/mL blood (mean): treated minus control, mean of replicates; for Δlog10 CFU/mL blood (mean) / Log10 CFU/mL blood at 4 h, single mouse / Delta Log10 CFU/mL blood at 4 h, single mouse: 4 mg/kg; for Delta Log10 CFU/mL blood at 4 h, single mouse: treated mouse minus mean of vehicle mice
Description: The experimental methodology for the neutropenic mouse bloodstream infection model was described previously. Briefly, 7-week-old female Swiss mice (22–28 g) were rendered neutropenic by intraperitoneal administration of cyclophosphamide, 4 days (150 mg/kg) and 1 day (100 mg/kg) prior to inoculation. Bloodstream infection was established by intravenous administration of a 50 µL bolus of early log-phase bacterial suspension (4 × 10^8 CFU/mL). Lipopeptide solutions were prepared at 1 mg/mL (free base) in sterile saline. At 2 h after inoculation, mice (n = 3) were injected intravenously with lipopeptide solution at 4 mg/kg (free base) or saline control. At 0 and 4 h after administration, blood was collected, diluted serially in sterile saline, and plated on nutrient agar plates. Agar plates were incubated at 37 °C overnight for bacterial colony counting and the bacterial load in the blood (log10 CFU/mL) in each mouse was calculated. In vivo efficacy was calculated as the difference of the log10 CFU/mL blood values between the treated mice and the saline-treated mice at 4 h post dosing (Δlog10 CFU/mL blood = log10 [treated] CFU/mL blood − log10[control] CFU/mL blood).

A. baumannii FADDI-AB030 = assay type: cell-based, Acinetobacter baumannii; details: FADDI-AB030
Description: as §1

A. baumannii FADDI-AB034 = assay type: cell-based, Acinetobacter baumannii; details: FADDI-AB034
Description: as §1

A. baumannii ATCC 19606 = assay type: cell-based, Acinetobacter baumannii; details: ATCC 19606
Description: as §1

[5] = test system: K. pneumoniae FADDI-KP032; assay type: cell-based, Klebsiella pneumoniae; details: FADDI-KP032
Description: as §1

[6] = test system: K. pneumoniae FADDI-KP065; assay type: cell-based, Klebsiella pneumoniae; details: FADDI-KP065
Description: as §1

| SMILES | MIC P. aeruginosa FADDI-PA038 [1] [mg/L] | MIC P. aeruginosa ATCC 27853 (P. aeruginosa ATCC 27853 [2]) [mg/L] | MIC P. aeruginosa FADDI-PA025 [3] [mg/L] | Kidney histopathology (SQS Score) (Swiss mice, kidney) | Kidney histopathology, mice with the SQS score (Swiss mice, kidney) | Log10 CFU/mL blood at 4 h, Mean (P. aeruginosa ATCC 27853 [4]) [Log10 CFU/mL blood] | Δlog10 CFU/mL blood (mean) (P. aeruginosa ATCC 27853 [4]) [log10 CFU/mL blood] | Log10 CFU/mL blood at 4 h, single mouse (P. aeruginosa ATCC 27853 [4]) | Delta Log10 CFU/mL blood at 4 h, single mouse (P. aeruginosa ATCC 27853 [4]) | MIC A. baumannii FADDI-AB030 (A. baumannii FADDI-AB030) [mg/L] | MIC A. baumannii FADDI-AB034 (A. baumannii FADDI-AB034) [mg/L] | MIC A. baumannii ATCC 19606 (A. baumannii ATCC 19606) [mg/L] | MIC K. pneumoniae FADDI-KP032 [5] [mg/L] | MIC K. pneumoniae FADDI-KP065 [6] [mg/L] | MIC, No Survanta (P. aeruginosa ATCC 27853 [2]) [mg/L] |
| --- | --- | --- | --- | --- | --- | --- | --- | --- | --- | --- | --- | --- | --- | --- | --- |
| CCCCCCCCC(=O)N[C@@H](CCN)C(=O)N[C@H](C(=O)N[C@@H](CN)C(=O)N[C@H]1CCNC(=O)[C@H]([C@@H](C)O)NC(=O)[C@H](CCN)NC(=O)[C@H](CCN)NC(=O)[C@H](CC)NC(=O)[C@@H](CC(C)C)NC(=O)[C@H](CCN)NC1=O)[C@@H](C)O [Lipopeptide F314] (HELM PEPTIDE1{[CCCCCCCCC(=O)[*:2]].[Dab].T.[NC[C@H](N[*:1])C(=O)[*:2]].[Dab].[Dab].[dL].[Abu].[Dab].[Dab].T}$PEPTIDE1,PEPTIDE1,5:R3-11:R2$$$V2.0) | 2 (≈ 1.77 µM) | 1 (≈ 0.887 µM) | >32 | +1 (SQS + 1 = mild damage (overall score, 1 to <15)) | 3/3 | 4.33 | −2.82 | 4.52 Log10 CFU/mL blood and 4.04 Log10 CFU/mL blood and 4.42 Log10 CFU/mL blood | -2.63 Log10 CFU/mL blood and -3.10 Log10 CFU/mL blood and -2.72 Log10 CFU/mL blood | 0.5 (≈ 0.443 µM) | 2 (≈ 1.77 µM) | 0.5 (≈ 0.443 µM) | <0.125 | 0.25 (≈ 0.222 µM) |  |
| CCCCCCCC(=O)N[C@@H](CCN)C(=O)N[C@H](C(=O)N[C@H](CO)C(=O)N[C@H]1CCNC(=O)[C@H]([C@@H](C)O)NC(=O)[C@H](CCN)NC(=O)[C@H](CCN)NC(=O)[C@H]([C@@H](C)O)NC(=O)[C@@H](CC(C)C)NC(=O)[C@H](CCN)NC1=O)[C@@H](C)O [Lipopeptide F183] (HELM PEPTIDE1{[CCCCCCCC(=O)[*:2]].[Dab].T.[dS].[Dab].[Dab].[dL].T.[Dab].[Dab].T}$PEPTIDE1,PEPTIDE1,5:R3-11:R2$$$V2.0) | 4 (≈ 3.54 µM) | 4 (≈ 3.54 µM) | >32 | 0 (SQS 0 = no significant change (overall score, <1)) | 3/3 |  |  |  |  | <0.125 | 0.25 (≈ 0.221 µM) | 1 (≈ 0.885 µM) | <0.125 | 0.25 (≈ 0.221 µM) | 4 (≈ 3.54 µM) |
| CC[C@@H]1NC(=O)[C@@H](CC(C)C)NC(=O)[C@H](CCN)NC(=O)[C@@H](NC(=O)[C@H](CN)NC(=O)[C@@H](NC(=O)[C@H](CCN)NC(=O)c2ccc(F)cc2Cl)[C@@H](C)O)CCNC(=O)[C@H]([C@@H](C)O)NC(=O)[C@H](CCN)NC(=O)[C@H](CCN)NC1=O [Lipopeptide F449] (HELM PEPTIDE1{[O=C(c1ccc(F)cc1Cl)[*:2]].[Dab].T.[NC[C@H](N[*:1])C(=O)[*:2]].[Dab].[Dab].[dL].[Abu].[Dab].[Dab].T}$PEPTIDE1,PEPTIDE1,5:R3-11:R2$$$V2.0) | 1 (≈ 0.874 µM) | 0.5 (≈ 0.437 µM) | 2 (≈ 1.75 µM) | 0 (SQS 0 = no significant change (overall score, <1)) | 3/3 | 5.26 | −2.32 | 5.17 Log10 CFU/mL blood and 5.18 Log10 CFU/mL blood and 5.44 Log10 CFU/mL blood | -2.41 Log10 CFU/mL blood and -2.40 Log10 CFU/mL blood and -2.14 Log10 CFU/mL blood | 1 (≈ 0.874 µM) | 1 (≈ 0.874 µM) | 4 (≈ 3.5 µM) | 0.25 (≈ 0.219 µM) | 0.25 (≈ 0.219 µM) |  |

Reference: paper PMC8956739, “A synthetic lipopeptide targeting top-priority multidrug-resistant Gram-negative pathogens” (Nature Communications, 2022)
